Converted amounts (≈) assume the structure as drawn. Like-named read-outs stand apart in the source and are kept apart here.
Legend:
[1] = Prodrug Solubility (visual inspection in buffer); type: physicochemical; settings: aqueous buffer, thermodynamic from solid
Procedure: One mg of each compound was diluted with at least 100 μl of the designated buffer, vortexed vigorously for approximately 1 minute, and visually inspected. Sodium citrate (40 mM) was buffered to pH 4 and phosphate-buffered saline was buffered to pH 7. Solutions with no remaining particles were recorded with a solubility ≧to the starting concentration. Compound suspensions were further diluted in 0.1 mL increments followed by vortexing as above, until the prodrug was dissolved. Solubilities of prodrugs ranged from 1.0 mg/ml to >10 mg/ml. The term “ND” means not determined.

[2] = tested on: S. aureus Smith; assay: Mouse Systemic Lethal Infection Model; type: in vivo; settings: Staphylococcus aureus, female Swiss Webster mice, infected intraperitoneally, three day survival, prodrug ED50 normalized to content of Compound 1
Procedure: Female Swiss Webster mice weighing between 20-25 g were infected intraperitoneally with approximately 5×10^5 colony forming units (CFU) S. aureus Smith in 7% mucin. One hour later, the animals were given prodrug or Compound 1 intravenously or orally in a dose volume of 0.1 mL/10 g body weight. Each group consisted of eight animals. The prodrugs were prepared immediately before dosing in 40 mM sodium citrate buffer, pH 4. Compound 1 was prepared in 20% HPβCD and warmed until dissolved (IV dosing) or in 0.5% methocel (PO dosing) as a suspension. The mice were observed over a three day period and ED50 values were calculated from the resulting % survival curves (Table 2). The term “ND” means not determined. The prodrug ED50 values were normalized to the content of Compound 1.

[3] = Solubility of Compound 1 in pH 4 buffer (24 h shaking, HPLC); type: physicochemical; settings: aqueous buffer, thermodynamic from solid, ambient temperature
Procedure: The solubility of the active drug, Compound 1, was determined in a separate experiment in which an excess of the compound was added to pH 4 buffer. The mixture was shaken with a Burrell wrist action shaker at ambient temperature for 24 hours. Excess solute was removed by centrifugation, the supernatant was diluted with a suitable solvent, and the concentration of the compound was measured using HPLC. The solubility of Compound 1 at pH 4 was 0.007 mg/mL.

[4] = Pharmacokinetics of Prodrugs in Animal Models, all species tested (summary); type: in vivo, mice, rats, or dogs; settings: for PK parameters, normalized to the dose, compared with the respective parameters for Compound 1: all species tested (Table 3a-3d); for conversion of the prodrug form in vivo: all species tested, inferred from PK parameters
Procedure: Animals were weighed and given the prodrug intravenously (mice, rats, or dogs) or orally (mice). The prodrugs were prepared immediately before dosing in 40 mM sodium citrate buffer, pH 4. Compound 1 was prepared in 20% HPβCD and warmed until dissolved (IV dosing), or in 0.5% methocel as a suspension (PO dosing). At 0, 0.08, 0.25, 0.5, 1, 2, 4, 6, 8, and 24 hours, blood was removed (via cardiac puncture in euthanized mice, via orbital sinus puncture in anesthetized rats, or via cephalic vein in conscious dogs) and 200 µL of the plasma supernatant was immediately frozen (−70° C.).
On the day of analysis, the samples were thawed on ice and 100 μL was diluted with 200 μL of acetonitrile. The samples were vortexed and then centrifuged at 3000×g for 5 minutes to pellet the precipitated plasma proteins. The supernatant was analyzed by HPLC, or by LC-MS-MS. A standard curve was constructed by spiking a known quantity of Compound 1 into plasma and then performing serial dilutions in the range of 0.01 to 10 μg/mL. Pharmacokinetic (PK) parameters were calculated by WinNonlin Pro, version 3.1.
The term “ND” means not determined. The term “NA” means not applicable. The dose of each prodrug was normalized to the Compound 1 dose. The values of the PK parameters for the prodrug form for Compounds 4a and 21a are based on the resulting accumulation and elimination of Compound 1.

[5] = 40 mM sodium citrate buffer, Sodium citrate (40 mM) pH 4, read-out: Solubility Sodium Citrate
[6] = phosphate-buffered saline pH 7, read-out: Solubility Saline

Row | solubility at 1 min [1, 5] | solubility at 1 min [1, 6] | SMILES | also measured
1 | ≥ 5000 µg/mL |  | CC(=O)N(C[C@H]1CN(c2ccc(N3Cc4cn(C)nc4C3)c(F)c2)C(=O)O1)C(=O)OCOC(=O)COP(=O)(O)O [Compound 24, Phosphonooxy-acetic acid (acetyl-{(R)-3-[3-fluoro-4-(2-methyl-2,6-dihydro-4H-pyrrolo[3,4-c]pyrazol-5-yl)-phenyl]-2-oxo-oxazolidin-5-ylmethyl}-carbamoyloxy)-methyl ester] | 
2 | ≥ 7500 µg/mL |  | CC(=O)N(C[C@H]1CN(c2ccc(N3Cc4cn(C)nc4C3)c(F)c2)C(=O)O1)C(=O)OC(C)OC(=O)CN1CCNCC1 (stereo partly drawn) [Compound 4b, Piperazin-1-yl-acetic acid 1-(acetyl-{(R)-3-[3-fluoro-4-(2-methyl-2,6-dihydro-4H-pyrrolo[3,4-c]pyrazol-5-yl)-phenyl]-2-oxo-oxazolidin-5-ylmethyl}-carbamoyloxy)-ethyl ester] | 
3 | ≥ 2000 µg/mL | ≥ 2000 µg/mL | CC(=O)N(C[C@H]1CN(c2ccc(N3Cc4cn(C)nc4C3)c(F)c2)C(=O)O1)C(=O)OCOP(=O)(O)O [Compound 18a, Acetyl-{(R)-3-[3-fluoro-4-(2-methyl-2,6-dihydro-4H-pyrrolo[3,4-c]pyrazol-5-yl)-phenyl]-2-oxo-oxazolidin-5-ylmethyl}-carbamic acid phosphonooxymethyl ester] | 
4 |  |  | CC(=O)NC[C@H]1CN(c2ccc(N3Cc4cn(C)nc4C3)c(F)c2)C(=O)O1 [Compound 1] | ED50 ([2]; dosed intravenously one hour later, read-out: ED50 (95% Fiducial Limits) IV): 3.3 mg/kg; ED50 ([2]; dosed orally one hour later, read-out: ED50 (95% Fiducial Limits) PO): 3.5 mg/kg; solubility at 24 h [3]: 7 µg/mL (≈ 0.0187 mM)
5 | ≥ 10000 µg/mL | ≥ 10000 µg/mL | CC(=O)N(C[C@H]1CN(c2ccc(N3Cc4cn(C)nc4C3)c(F)c2)C(=O)O1)C(=O)OCOC(=O)CN1CCNCC1 [Compound 4a, Piperazin-1-yl-acetic acid (acetyl-{(R)-3-[3-fluoro-4-(2-methyl-2,6-dihydro-4H-pyrrolo[3,4-c]pyrazol-5-yl)-phenyl]-2-oxo-oxazolidin-5-ylmethyl}-carbamoyloxy)-methyl ester] | PK parameters, normalized to the dose, compared with the respective parameters for Compound 1 [4]: similar; conversion of the prodrug form in vivo [4]: rapidly converted in vivo to Compound 1
6 | ≥ 10000 µg/mL | ≥ 10000 µg/mL | CNCC(=O)OCOC(=O)N(C[C@H]1CN(c2ccc(N3Cc4cn(C)nc4C3)c(F)c2)C(=O)O1)C(C)=O [Compound 10, Methylamino-acetic acid (acetyl-{(R)-3-[3-fluoro-4-(2-methyl-2,6-dihydro-4H-pyrrolo[3,4-c]pyrazol-5-yl)-phenyl]-2-oxo-oxazolidin-5-ylmethyl}-carbamoyloxy)-methyl ester] | 
7 | 2500 µg/mL (≈ 4.35 mM) | 1000 µg/mL (≈ 1.74 mM) | CC(=O)N(C[C@H]1CN(c2ccc(N3Cc4cn(C)nc4C3)c(F)c2)C(=O)O1)C(=O)OCOC(=O)CN1CCOCC1 [Compound 6, Morpholin-4-yl-acetic acid (acetyl-{(R)-3-[3-fluoro-4-(2-methyl-2,6-dihydro-4H-pyrrolo[3,4-c]pyrazol-5-yl)-phenyl]-2-oxo-oxazolidin-5-ylmethyl}-carbamoyloxy)-methyl ester] | 
8 | ≥ 10000 µg/mL | ≥ 10000 µg/mL | CC(=O)N(C[C@H]1CN(c2ccc(N3Cc4cn(C)nc4C3)c(F)c2)C(=O)O1)C(=O)OCOC(=O)CN1CCN(C)CC1 [Compound 8, (4-Methyl-piperazin-1-yl)-acetic acid (acetyl-{(R)-3-[3-fluoro-4-(2-methyl-2,6-dihydro-4H-pyrrolo[3,4-c]pyrazol-5-yl)-phenyl]-2-oxo-oxazolidin-5-ylmethyl}-carbamoyloxy)-methyl ester] | 
9 | ≥ 10000 µg/mL | ≥ 10000 µg/mL | CC(=O)N(C[C@H]1CN(c2ccc(N3Cc4cn(C)nc4C3)c(F)c2)C(=O)O1)C(=O)OCOC(=O)CN(C)C [Compound 5, Dimethylamino-acetic acid (acetyl-{(R)-3-[3-fluoro-4-(2-methyl-2,6-dihydro-4H-pyrrolo[3,4-c]pyrazol-5-yl)-phenyl]-2-oxo-oxazolidin-5-ylmethyl}-carbamoyloxy)-methyl ester] | 

Row | SMILES | solubility at 1 min [1, 5] | solubility at 1 min [1, 6] | also measured
10 | CCOP(=O)(O)OCOC(=O)N(C[C@H]1CN(c2ccc(N3Cc4cn(C)nc4C3)c(F)c2)C(=O)O1)C(C)=O [Compound 21a, Acetyl-{(R)-3-[3-fluoro-4-(2-methyl-2,6-dihydro-4H-pyrrolo[3,4-c]pyrazol-5-yl)-phenyl]-2-oxo-oxazolidin-5-ylmethyl}-carbamic acid ethoxy-hydroxy-phosphoryloxymethyl ester] |  | ≥ 10000 µg/mL | solubility at 1 min ([1]; Sodium citrate (40 mM) pH 4, read-out: Solubility Sodium Citrate): ≥ 10000 µg/mL; PK parameters, normalized to the dose, compared with the respective parameters for Compound 1 [4]: similar; conversion of the prodrug form in vivo [4]: rapidly converted in vivo to Compound 1
